According to patent publication US20100004333A1, “COMPOSITIONS AND METHODS FOR TREATING CARDIOVASCULAR DISORDERS” (priority 2004, published 2010):

Assays:
Heme oxygenase-1 mRNA = assay: HO-1 mRNA by real time RT-PCR in cultured rabbit aortic smooth muscle cells; assay type: cell-based; settings: α-tocopherol 50 μM, 24 hours; FIG. 20A
Method: (§1) Materials and methods were principally as described in Examples 6 and 7. Vitamin E (α-tocopherol for cellular studies, α-tocopheryl acetate for in vivo studies) was obtained from Sigma (St. Louis, Mo.). Heme oxygenase-1 mRNA was assessed by real time RT-PCR in rabbit aortic smooth muscle cells cultured for 24 hours in the presence of vehicle (control), probucol (50 μM) or α-tocopherol (50 μM) as described in (Circulation 2004; 110:1855-1860). Re-endothelialization was assessed by Evans blue staining (Circulation 2003; 107:2031-2036) 3 weeks after injury. Intima-to-media ratio of vessels from control rabbits and animals treated with probucol or α-tocopheryl acetate (n=6 per group) was also determined 3 weeks after aortic balloon injury, using 5 serial sections per aortic segment, 100 μm apart.

rabbits = assay: Rabbit aortic balloon injury, 3 weeks: re-endothelialization (Evans blue) and intima-to-media ratio, vitamin E; assay type: in vivo; settings: α-tocopheryl acetate
Method: as §1

[1] = tested on: New Zealand White rabbits; assay: Rabbit aortic balloon-injury model: intimal hyperplasia; assay type: in vivo; settings: 9 weeks, FIG. 21; for Protection against balloon injury-induced intimal hyperplasia: 0.02% wt/wt in chow, ABI at end of week three
Method: Rabbit aortic balloon-injury model. Four groups of male New Zealand White rabbits (1.8-2.2 kg, Merunga Farm, Coffs Harbour, Australia), matched for body weight and baseline plasma cholesterol, were fed 100 g per day of normal chow±1% probucol, 0.02% DTBP, or 0.02% BP (wt/wt) for up to nine weeks. Aortic balloon-injury (ABI) was carried out at the end of week three, resulting in complete endothelial denudation. Harvesting of aortas was done after a further 6 weeks (n=6 per group). Aortic lesion assessment was carried out at the 3rd pair of lumber arteries in NZW rabbits as described in Circulation 2003, 107:2031-2036. Statistics. Data are expressed as mean±SEM. One-way ANOVA and the student-Newman-Keul's test were used to evaluate differences between groups, with P<0.05 considered significant.
Materials and methods were as described in Examples 6 and 7, with the following addition. DTBP-s and STBP were synthesized as described in Example 10. A total of 48 New Zealand White rabbits (1.8-2.2 kg) were used for this example. Rabbits were fed normal chow (100 g/day) without (Ctrl, n=12) or with 0.02% DTBP (wt/wt, n=6), 0.02% STBP (wt/wt, n=7), 0.02% DTBP-s (wt/wt, n=11) or 0.1% DTBP-s (wt/wt, n=7) for 9 weeks. Aortic balloon-injury was carried out at the end of week three.

Row | SMILES | Induction of HO-1 (mRNA) in vascular smooth muscle cells (Heme oxygenase-1 mRNA) | Intimal hyperplasia (intima-to-media ratio) (rabbits; 3 weeks after aortic balloon injury, FIG. 20C) | Re-endothelialization (Evans blue) (rabbits; 3 weeks after injury, FIG. 20B) | Protection against balloon injury-induced intimal hyperplasia [1] | Protection against intimal hyperplasia: 0.02% DTBP-s compared with 0.1% DTBP-s ([1]; 0.1% wt/wt DTBP-s, P<0.05 versus 0.02% DTBP-s)
1 | Cc1c(C)c2c(c(C)c1O)CC[C@@](C)(CCC[C@H](C)CCC[C@H](C)CCCC(C)C)O2 [vitamin E, α-tocopherol] | failed to induce HO-1 | failed to inhibit intimal hyperplasia | did not promote re-endothelialization | – | –
2 | CC(C)(C)c1cc(SSc2cc(C(C)(C)C)c(OC(=O)CCC(=O)O)c(C(C)(C)C)c2)cc(C(C)(C)C)c1O [DTBP-s, 4-(2,6-di-t-butyl-4-((3,5-di-t-butyl-4-hydroxyphenyl)disulfanyl)phenoxy)-4-oxobutanoic acid] | – | – | – | significant protection, albeit less effectively | less effectively as that seen with STBP (0.02%, to wt/wt) and DTBP-s (0.1%, wt/wt)
3 | CC(C)(C)c1cc(S[Se]c2cc(C(C)(C)C)c(O)c(C(C)(C)C)c2)cc(C(C)(C)C)c1O [STBP, 2,6-di-t-butyl-4-(3,5-di-t-butyl-4-hydroxyphenylselanylthio)phenol] | – | – | – | protected to a comparable extent | –
